Target: T1, recombinant IL4I1 (Homo sapiens, UniProt Q96RQ9)
T1 construct: purchased R&D Systems 5684-AO-020
T1 sequence (Q96RQ9 22-567): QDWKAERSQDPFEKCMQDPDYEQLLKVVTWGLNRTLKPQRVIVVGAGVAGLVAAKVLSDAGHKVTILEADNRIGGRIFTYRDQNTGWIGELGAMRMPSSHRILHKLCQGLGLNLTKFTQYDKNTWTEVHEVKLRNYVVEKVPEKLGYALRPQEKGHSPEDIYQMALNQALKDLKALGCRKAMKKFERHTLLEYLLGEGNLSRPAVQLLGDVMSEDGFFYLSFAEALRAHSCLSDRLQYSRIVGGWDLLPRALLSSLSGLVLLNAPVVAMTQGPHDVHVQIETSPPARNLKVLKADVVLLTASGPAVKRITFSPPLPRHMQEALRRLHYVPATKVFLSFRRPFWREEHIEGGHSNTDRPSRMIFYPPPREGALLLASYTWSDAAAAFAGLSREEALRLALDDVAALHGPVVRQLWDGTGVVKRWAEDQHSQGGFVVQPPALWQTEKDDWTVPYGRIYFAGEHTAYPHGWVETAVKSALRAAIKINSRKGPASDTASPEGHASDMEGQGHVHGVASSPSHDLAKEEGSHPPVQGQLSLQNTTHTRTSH
Experiment: IL4I1 Enzymatic Assay (Amplex Red/HRP coupled detection of H2O2, fluorescence)
Type: biochemical
Details: 1 nM recombinant IL4I1; four-hour pre-incubation with compound; 1 mM each Phe, Tyr, Trp; ten-point titration
In short: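 Recombinant IL4I1 (1 nM final) pre-incubated 4 h at ambient temperature with compound (0.5% DMSO) in 50 mM Hepes pH 7.0, 0.005% Tween20; reaction started with 1 mM each Phe/Tyr/Trp plus excess Amplex Red/HRP, run 120 min. H2O2 read as resorufin fluorescence; EC50 from 10-point four-parameter fit.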

EC50 [nM]	Structure (SMILES)
271	Cc1nc(S(C)(=O)=O)ccc1-n1cc(C(=O)NCc2nnc(-c3ccccc3)s2)nn1 [Example 341, 1-(2-methyl-6-(methylsulfonyl)pyridin-3-yl)-N-((5-phenyl-1,3,4-thiadiazol-2-yl)methyl)-1H-1,2,3-triazole-4-carboxamide]
722	Cc1ccc(-n2cc(C(=O)NCc3cc(-c4cccc(Cl)c4)no3)nn2)c(C)n1 [Example 221, N-{[3-(3-chlorophenyl)-1,2-oxazol-5-yl]methyl}-1-(2,6-dimethylpyridin-3-yl)-1H-1,2,3-triazole-4-carboxamide]
349	Cn1cc(C(=O)NCc2cc(-c3cccc(F)c3)no2)nn1 [Example 226, N-{[3-(3-fluorophenyl)-1,2-oxazol-5-yl]methyl}-1-methyl-1H-1,2,3-triazole-4-carboxamide]
179	Cc1nc(C2COC2)ccc1-n1cc(C(=O)NCc2nnc(-c3ccccc3)s2)nn1 [Example 277, 1-(2-methyl-6-(oxetan-3-yl)pyridin-3-yl)-N-((5-phenyl-1,3,4-thiadiazol-2-yl)methyl)-1H-1,2,3-triazole-4-carboxamide]
75	C[C@@H](O)Cn1cc(C(=O)NCc2nnc(-c3ccccc3)s2)nn1 [Example 180, (R)-1-(2-hydroxypropyl)-N-((5-phenyl-1,3,4-thiadiazol-2-yl)methyl)-1H-1,2,3-triazole-4-carboxamide]
26	CNC(=O)C(C)(C)n1cc(C(=O)NCc2nnc(-c3ccccc3)s2)nn1 [Example 322, 1-(2-methyl-1-(methylamino)-1-oxopropan-2-yl)-N-((5-phenyl-1,3,4-thiadiazol-2-yl)methyl)-1H-1,2,3-triazole-4-carboxamide]
532	CCC(CO)(CO)n1cc(C(=O)NCc2nnc(-c3ccccc3)s2)nn1 [Example 195, 1-(1-hydroxy-2-(hydroxymethyl)butan-2-yl)-N-((5-phenyl-1,3,4-thiadiazol-2-yl)methyl)-1H-1,2,3-triazole-4-carboxamide]
648	Cn1cc(C(=O)NCc2cc(-c3ccc(Cl)cc3)no2)nn1 [Example 217, N-{[3-(4-chlorophenyl)-1,2-oxazol-5-yl]methyl}-1-methyl-1H-1,2,3-triazole-4-carboxamide]
832	Cn1cc(C(=O)NCc2cc(-c3ccccc3Cl)no2)nn1 [Example 224, N-{[3-(2-chlorophenyl)-1,2-oxazol-5-yl]methyl}-1-methyl-1H-1,2,3-triazole-4-carboxamide]
9	CCc1ccc(-n2cc(C(=O)NCc3nnc(-c4ccccc4)s3)nn2)c(C)n1 [Example 336, 1-(6-ethyl-2-methylpyridin-3-yl)-N-((5-phenyl-1,3,4-thiadiazol-2-yl)methyl)-1H-1,2,3-triazole-4-carboxamide]
226	O=C(NCc1nnc(-c2ccccc2)s1)c1cn(C2CCCC(O)C2)nn1 (stereo not shown) [Example 206, 1-(3-hydroxycyclohexyl)-N-((5-phenyl-1,3,4-thiadiazol-2-yl)methyl)-1H-1,2,3-triazole-4-carboxamide]
610	O=C(NCc1nnc(-c2ccccc2)s1)c1cn([C@@H]2CC(=O)N(C3CC3)C2)nn1 [Example 182, (R)-1-(1-cyclopropyl-5-oxopyrrolidin-3-yl)-N-((5-phenyl-1,3,4-thiadiazol-2-yl)methyl)-1H-1,2,3-triazole-4-carboxamide]
238	O=C(NCc1nnc(-c2ccccc2)s1)c1cn(C[C@H]2CCCO2)nn1 [Example 179, (R)-N-((5-phenyl-1,3,4-thiadiazol-2-yl)methyl)-1-((tetrahydrofuran-2-yl)methyl)-1H-1,2,3-triazole-4-carboxamide]
294	O=C(NCc1nnc(-c2ccccc2)s1)c1cn(-c2cnccn2)nn1 [Example 311, N-((5-phenyl-1,3,4-thiadiazol-2-yl)methyl)-1-(pyrazin-2-yl)-1H-1,2,3-triazole-4-carboxamide]
26	CC(C)(C#N)n1cc(C(=O)NCc2nnc(-c3ccccc3)s2)nn1 [Example 313, 1-(2-cyanopropan-2-yl)-N-((5-phenyl-1,3,4-thiadiazol-2-yl)methyl)-1H-1,2,3-triazole-4-carboxamide]
23	O=C(NCc1nnc(-c2ccncc2)s1)c1cn(C2CC2)nn1 [Example 243, 1-cyclopropyl-N-((5-(pyridin-4-yl)-1,3,4-thiadiazol-2-yl)methyl)-1H-1,2,3-triazole-4-carboxamide]

Continued, compound first:

Structure (SMILES)	EC50 [nM]
Cc1ccc(-n2cc(C(=O)NCc3ccc(-c4sccc4C)nn3)nn2)c(C)n1 [Example 122, 1-(2,6-dimethylpyridin-3-yl)-N-((6-(3-methylthiophen-2-yl)pyridazin-3-yl)methyl)-1H-1,2,3-triazole-4-carboxamide]	571
Cc1ccc(-n2cc(C(=O)NCc3ccc(-c4cccc(F)c4)nn3)nn2)c(C)n1 [Example 120, 1-(2,6-dimethylpyridin-3-yl)-N-((6-(3-fluorophenyl)pyridazin-3-yl)methyl)-1H-1,2,3-triazole-4-carboxamide]	123
COc1cc(C(=O)NCc2nnc(-c3ccccc3)s2)on1 [Example 58, 3-methoxy-N-[(5-phenyl-1,3,4-thiadiazol-2-yl)methyl]isoxazole-5-carboxamide]	92
O=C(NCc1nnc(-c2ccccc2)s1)c1cn(CC2(F)CCC2)nn1 [Example 135, 1-((1-fluorocyclobutyl)methyl)-N-((5-phenyl-1,3,4-thiadiazol-2-yl)methyl)-1H-1,2,3-triazole-4-carboxamide]	100
Cc1csc(C(=O)NCc2nnc(-c3ccccc3)s2)c1 [Example 10, 4-methyl-N-[(5-phenyl-1,3,4-thiadiazol-2-yl)methyl]thiophene-2-carboxamide]	10
Cn1cnc(C(=O)NCc2nnc(-c3ccccc3)s2)c1 [Example 32, 1-methyl-N-((5-phenyl-1,3,4-thiadiazol-2-yl)methyl)-1H-imidazole-4-carboxamide]	77
CC(C)c1cc(C(=O)NCc2nnc(-c3ccccc3)s2)on1 [Example 49, 3-isopropyl-N-[(5-phenyl-1,3,4-thiadiazol-2-yl)methyl]isoxazole-5-carboxamide]	22
CCOc1ccsc1C(=O)NCc1nnc(-c2ccccc2)s1 [Example 8, 3-ethoxy-N-[(5-phenyl-1,3,4-thiadiazol-2-yl)methyl]thiophene-2-carboxamide]	3
COc1c(C(=O)NCc2nnc(-c3ccccc3)s2)csc1Cl [Example 41, 5-chloro-4-methoxy-N-[(5-phenyl-1,3,4-thiadiazol-2-yl)methyl]thiophene-3-carboxamide]	59
COCC[C@@H](C)n1cc(C(=O)NCc2nnc(-c3ccccc3)s2)nn1 [Example 65, (R)-1-(4-methoxybutan-2-yl)-N-((5-phenyl-1,3,4-thiadiazol-2-yl)methyl)-1H-1,2,3-triazole-4-carboxamide]	68
Cc1cc(C(=O)NCc2nnc(-c3ccccc3)s2)on1 [Example 25, 3-methyl-N-[(5-phenyl-1,3,4-thiadiazol-2-yl)methyl]isoxazole-5-carboxamide]	76
CC(C)Cn1cc(C(=O)NCc2nnc(-c3ccccc3)s2)nn1 [Example 88, 1-isobutyl-N-((5-phenyl-1,3,4-thiadiazol-2-yl)methyl)-1H-1,2,3-triazole-4-carboxamide]	13
O=C(NCc1nnc(-c2ccccc2)s1)c1cn(C2(CF)CC2)nn1 [Example 151, 1-(1-(fluoromethyl)cyclopropyl)-N-((5-phenyl-1,3,4-thiadiazol-2-yl)methyl)-1H-1,2,3-triazole-4-carboxamide]	25
O=C(NCc1nnc(-c2ccccc2)s1)c1cn(CC(O)C(F)(F)F)nn1 (stereo not shown) [Example 127, N-((5-phenyl-1,3,4-thiadiazol-2-yl)methyl)-1-(3,3,3-trifluoro-2-hydroxypropyl)-1H-1,2,3-triazole-4-carboxamide]	73
Cc1ccc(-n2cc(C(=O)NCc3ccc(-c4cccc(F)c4F)nn3)nn2)c(C)n1 [Example 117, N-((6-(2,3-difluorophenyl)pyridazin-3-yl)methyl)-1-(2,6-dimethylpyridin-3-yl)-1H-1,2,3-triazole-4-carboxamide]	692
O=C(NCc1nnc(-c2ccccc2)s1)c1cn(C2C[C@@H]2C(F)F)nn1 (single isomer, unassigned) [Example 143, Trans-1-(-2-(difluoromethyl)cyclopropyl]-N-[(5-phenyl-1,3,4-thiadiazol-2-yl)methyl]-1H-1,2,3-triazole-4-carboxamide]	179
Cc1ccc(-n2cc(C(=O)NCc3nnc(-c4cccc(F)c4C)s3)nn2)c(C)n1 [Example 110, 1-(2,6-dimethylpyridin-3-yl)-N-((5-(3-fluoro-2-methylphenyl)-1,3,4-thiadiazol-2-yl)methyl)-1H-1,2,3-triazole-4-carboxamide]	312
Cn1ccc(C(=O)NCc2nnc(-c3ccccc3)s2)c1 [Example 51, 1-methyl-N-[(5-phenyl-1,3,4-thiadiazol-2-yl)methyl]pyrrole-3-carboxamide]	118
